Measurements from US20040116397A1, “Agents and methods for the prevention of initial onset of cancers, the treatment of cancers, and the recurrence of existing cancers” (priority 2003, published 2004).
“Also recorded” adds a separate entry of the source.

Experiments:
[1] = system: LNCaP cells; assay: Cell growth, CELLTITER96 AQUEOUS ONE tetrazolium assay; type: cell-based; conditions: for inhibition of growth: 72 hours
Experimental: (§1) Referring to FIG. 1, actively growing LNCaP and DU145 cells were plated in 96-well plates at a density of 10^5 cells per well. After 24 hours in a 37° C. incubator with 5% CO2, the cells were treated with the indicated concentration of 2-ME. Control cells received only the vehicle (DMSO). Cell growth was monitored every 24 hours using the […]96 AQUEOUS ONE solution assay containing a tetrazolium compound (Promega Corporation, Madison, Wis.).
(§2) The assay is based on the principle that actively growing cells generate reducing equivalents such as NADH that is necessary for the cells to reduce the tetrazolium compound to formazan product that is detected by measuring the absorbance at […]. Increase in absorbance indicates cell viability.
(§3) The data reflected in FIG. 1 represents an average of five replicates and the experiment was conducted twice. […] It is known that there are differences of AR and p53 between these two cell types.
Cells were treated with either eugenol (0.25, 0.5, 0.75 or 1 mM) or 2-ME (0.5, 1, 2 or 3 mM) or both (0.25, 0.5, 0.75 or 1 mM of eugenol along with 0.5 mM of 2-ME). Cell growth was measured following 72 hours of treatment as described above.

[2] = system: DU145 cells; assay: as above; type: cell-based
Experimental: as §1, §2, §3

[3] = system: DU145 cells; assay: Cell cycle distribution by flow cytometric analysis (Krishan stain); type: cell-based; conditions: DU145, 3 μM, 16 hours
Experimental: Referring to FIG. 3, since 2-ME inhibited the growth of LNCaP and DU145 cells, the present inventors set out to examine whether 2-ME treatment altered the distribution of cells during cell cycle progression. Logarithmically growing DU145 cells were plated in 60 mm dishes as described above at a density of 10^5 cells per dish. After 24 hours of growth at 37° C. in an incubator with 5% CO2, half the dishes were treated with 3 μM of 2-ME and the other half was left untreated. Cells were observed every 24 hours for morphological changes following treatment with 2-ME. After 16 hours of incubation cells were harvested by trypsinization and the cell pellet was resuspended in 1 ml of Krishan stain and subjected to flow cytometric analysis at the Flow Cytometry facility of the University of Colorado Comprehensive Cancer Center, Denver, Colo. […] This could be due to alteration of expression and/or activities of cell cycle regulatory proteins in the G2/M phase.

[4] = system: p53 in LNCaP cells; assay: p53 EMSA and Western blot of whole cell extracts; type: cell-based
Experimental: (§4) FIG. 4 depicts an electrophoretic mobility shift assay (EMSA) of whole cell extracts (prepared from LNCaP and DU145 cells that were untreated (C) or treated (T) with 3 μM 2-ME for 48 h) using p53 consensus oligonucleotide as radiolabled probe. The indicated amounts (μg) of the extract was incubated with approximately 0.2 ng of labeled probe and the DNA-protein complexes were resolved by 4% non-denaturing gel electrophoresis. Unbound (F) and bound complexes (B) are indicated. Lane 1 is free probe; lane 2, 4, 6 and 8 are with 2.5 μg protein; lanes 3, 5, 7 and 9 are with 5 μg protein. Lanes 2, 3, 6 and 7 are untreated; lanes 4, 5, 8 and 9 are treated.
FIG. 5 depicts a Western blot analysis of whole cell extracts from LNCaP and DU145 cells following treatment with 2-ME for 48 hours using a p53 antibody (FL-393, Santa Cruz). 25 μg of extract was fractionated on 10% denaturing gel and transferred to nitrocellulose membrane. After blocking the membrane, it was incubated for 2 hours with the p53 antibody. This was followed by incubation with horseradish peroxidase-conjugated anti-rabbit IgG antibody (Sigma) in the blocking solution. Bound antibody was detected by Supersignal West Pico Chemiluminescent Substrate, following the manufacturer's directions (Pierce, Rockford, Ill.). […]

[5] = system: p53 in DU145 cells; assay: p53 EMSA of whole cell extracts; type: cell-based; conditions: DU145 extract, 3 μM, 48 h
Experimental: as §4
As shown in FIG. 4 (Electrophoretic mobility shift assay (EMSA) of extracts prepared from LNCaP and DU145 cells following treatment with 2-ME using p53 oligonucleotide probe) and FIG. 5 (Western blot analysis of extracts following 2-ME treatment with p53 antibody), the proteins from LNCaP and DU145 cells bound to the p53 consensus sequence (FIG. 4, lanes 2 and 3). […] One would expect to see induced expression of p53 following 2-ME treatment, if it is involved in mediating apoptosis.

[6] = system: epidermal hyperplasia; assay: Mouse two-stage carcinogenesis model (DMBA/TPA), skin hyperplasia; type: in vivo; conditions: 4 weeks, Sencar mice
Excerpt: To test the efficacy of 2-ME in preventing or reversing neoplastic progression, the present inventors have conducted investigations using the well-established mouse two-stage carcinogenesis model. This model was developed to study the complex multistep process of epidermal carcinogenesis since initiation and promotion are involved in the development of cancer in humans. […] Although treatment of mouse skin with a single large dose of DMBA can induce papillomas in about 10-20 weeks and carcinomas in about 20-60 weeks, repetitive doses are necessary to induce tumors at lower levels. No tumors are formed at a sub-threshold dose of DMBA. However, if TPA is applied to the mice initiated with a sub threshold dose of DMBA, multiple papillomas appear after a short latency period, followed by squamous cell carcinomas after a longer period. Tumors cannot be induced with repetitive treatment of TPA in the absence of initiation. Such phenotypic changes produced in the epidermis by TPA treatment are critical for neoplastic progression. One such characteristic feature of neoplastic progression is hyperplasia.
Female Sencar mice were divided into 7 groups each with 5 animals. […]

[7] = system: DMBA-TPA induced tumors; assay: Regression of DMBA-TPA induced tumors in mice; type: in vivo, mouse; conditions: 2 mg topically twice a week for four weeks
Experimental: Referring to FIG. 12, after 4 weeks, animals were sacrificed and the dorsal skin was used for histology. […] In addition, topical application of 2 mg of 2-ME during tumor initiation-promotion stage inhibited hyperplasia by about 14%. […] In addition, the present inventors have treated mice that have developed the tumors using DMBA-TPA protocol with 2 mg of 2-ME topically twice a week for four weeks to see if tumors regress. During this four-week study, we have noticed that the number of tumors reduced from 10 to 8 in one animal (one such tumor is indicated by an arrow in the mouse II—see FIG. 13) and no change in the other animal.

[8] = system: prostate cancer cell lines (LNCaP, DU145) and brain and/or nervous system cancer cell line (DAOY); assay: Cell proliferation and induction of apoptosis, 2-ME versus 16-ES; type: cell-based
Excerpt: Building on these findings, further experiments have helped to elucidate the structural bases for 2-ME's molecular efficacy. A number of experiments have been conducted using 2-ME and 16-epiestriol (hereinafter “16-ES”), an analogue of 2-ME that lacks the methoxy group at the second position. In a multitude of experiments, using prostate cancer cell lines (both androgen-dependent (LNCaP), and androgen-independent (DU145) cells), and a brain and/or nervous system cancer cell line (DAOY), the present inventors have studied the effects of 2-ME and 16-ES on cell proliferation and the induction of apoptosis, in a number of ways. […] Further, it also indicates efficacy of a series of compounds with various moieties at the second position in the treatment of cancer. […] Thus, the present inventors now propose a method of synthesizing a number of analogues of 2-ME that will exceed the efficacy of 2-ME in the prevention of cancer.

[9] = system: endothelial cell; conditions: background, reference (3); cited from earlier work

SMILES | inhibition of growth ([1]; 0.25 mM of eugenol) | IC50 ([1]; Homo sapiens, read-out: concentration necessary for 50% inhibition of growth) [µM] | IC50 ([2]; Homo sapiens, DU-145, DU145 cells, read-out: concentration necessary for 50% inhibition of growth) [µM] | inhibition of growth ([1]; 0.5 mM of 2-ME) | inhibition of cell proliferation ([1]; 2-ME 0.5 to 5 μM, monitored every 24 hours) | inhibition of cell proliferation ([2]; DU145, 2-ME 0.5 to 5 μM, monitored every 24 hours, less sensitive than LNCaP) | population of cells in S phase [3] | G2/M population following treatment ([3]; untreated 23%) [%] | G1 population following treatment ([3]; untreated 71%) [%] | DNA-binding activity to p53 consensus sequence (EMSA) ([4]; 3 μM, 48 h) | p53 expression (Western blot) ([4]; 48 hours) | loss of DNA-binding activity to p53 consensus sequence (EMSA) [5] | reduction of hyperplasia ([6]; topical 2 mg 5 min before DMBA application) [%] | inhibition of hyperplasia ([6]; topical 2 mg during tumor initiation-promotion stage) | size of the tumors [7] | number of tumors after treatment ([7]; one animal, reduced from 10) | number of tumors, other animal ([7]; other animal) | inhibition of cancerous cell growth [8] | pro-apoptotic effects [8] | endothelial cell proliferation [9]
C=CCc1ccc(O)c(OC)c1 [eugenol] | about 30% | ~750 | > 2000 | – | – | – | – | – | – | – | – | – | – | – | – | – | – | – | – | –
COc1cc2c(cc1O)CC[C@@H]1[C@@H]2CC[C@]2(C)[C@@H](O)CC[C@@H]12 [2-ME, 2-methoxyoestradiol] | – | – | – | about 20% | dose-dependent inhibition of cell proliferation | dose-dependent inhibition of cell proliferation | no significant change | 46 | 46 | lost their binding activity | decrease in its expression | not as dramatic as that of LNCaP extracts | 26 | about 14% | reduction in the size of the tumors | 8 | no change | significantly inhibits cancerous cell growth; also recorded: inhibits the growth | has pro-apoptotic effects | inhibit endothelial cell proliferation
C[C@]12CC[C@@H]3c4ccc(O)cc4CC[C@H]3[C@@H]1C[C@H](O)[C@@H]2O [16-ES, 16-epiestriol] | – | – | – | – | – | – | – | – | – | – | – | – | – | – | – | – | – | does not | – | –
